Assay results reported in ChEMBL document CHEMBL2331532, “(+)-Laburnamine, a natural selective ligand and partial agonist for the α4β2 nicotinic receptor subtype” (J Nat Prod, 2013).
Active and inactive are the calls of the source. The calls are words filed in the database; no cut-off is given here.

How the values were obtained:
[1] = target: T1, Neuronal acetylcholine receptor; alpha4/beta2 (Rattus norvegicus, UniProt P09483+P12390); assay: Displacement of [3H]epibatidine from alpha4beta2 nAChR in rat cortex
T1 sequence (P09483 whole entry): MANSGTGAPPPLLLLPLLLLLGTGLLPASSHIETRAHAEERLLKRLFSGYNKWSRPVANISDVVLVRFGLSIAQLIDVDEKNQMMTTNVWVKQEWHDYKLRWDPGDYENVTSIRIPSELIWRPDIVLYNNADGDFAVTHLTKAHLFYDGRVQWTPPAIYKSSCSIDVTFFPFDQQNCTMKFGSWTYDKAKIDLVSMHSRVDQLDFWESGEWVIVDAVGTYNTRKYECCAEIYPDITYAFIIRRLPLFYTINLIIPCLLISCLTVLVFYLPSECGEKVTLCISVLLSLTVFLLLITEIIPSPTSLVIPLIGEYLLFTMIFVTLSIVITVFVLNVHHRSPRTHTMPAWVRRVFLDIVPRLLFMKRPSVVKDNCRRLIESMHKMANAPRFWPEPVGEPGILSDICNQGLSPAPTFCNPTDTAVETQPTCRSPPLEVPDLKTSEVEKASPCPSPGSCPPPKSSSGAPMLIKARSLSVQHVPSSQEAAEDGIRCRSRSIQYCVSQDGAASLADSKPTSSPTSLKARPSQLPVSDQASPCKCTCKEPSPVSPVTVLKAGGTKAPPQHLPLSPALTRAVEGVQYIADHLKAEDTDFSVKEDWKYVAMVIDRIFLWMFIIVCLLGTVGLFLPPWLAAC
T1 sequence (P12390 whole entry): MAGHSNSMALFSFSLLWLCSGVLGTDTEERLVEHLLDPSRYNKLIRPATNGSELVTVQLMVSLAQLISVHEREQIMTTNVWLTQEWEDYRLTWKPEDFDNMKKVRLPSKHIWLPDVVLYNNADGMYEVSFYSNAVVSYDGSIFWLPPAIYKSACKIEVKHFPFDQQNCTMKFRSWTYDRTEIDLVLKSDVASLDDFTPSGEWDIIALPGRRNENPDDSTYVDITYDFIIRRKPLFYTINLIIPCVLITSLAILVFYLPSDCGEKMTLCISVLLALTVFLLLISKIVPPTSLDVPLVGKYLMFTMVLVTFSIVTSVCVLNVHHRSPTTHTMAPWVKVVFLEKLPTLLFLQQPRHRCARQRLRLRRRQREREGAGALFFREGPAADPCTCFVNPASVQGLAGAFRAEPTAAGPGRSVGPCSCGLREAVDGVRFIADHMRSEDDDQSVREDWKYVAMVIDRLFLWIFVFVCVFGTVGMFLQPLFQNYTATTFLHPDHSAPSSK

[2] = target: Neuronal acetylcholine receptor subunit alpha-7 (Rattus norvegicus, UniProt Q05941); assay: Displacement of [125I]alpha-bungarotoxin from alpha7 nAChR from rat hippocampus; type: tissue-based
Sequence of Neuronal acetylcholine receptor subunit alpha-7 (Rattus norvegicus, UniProt Q05941) (Q05941 whole entry): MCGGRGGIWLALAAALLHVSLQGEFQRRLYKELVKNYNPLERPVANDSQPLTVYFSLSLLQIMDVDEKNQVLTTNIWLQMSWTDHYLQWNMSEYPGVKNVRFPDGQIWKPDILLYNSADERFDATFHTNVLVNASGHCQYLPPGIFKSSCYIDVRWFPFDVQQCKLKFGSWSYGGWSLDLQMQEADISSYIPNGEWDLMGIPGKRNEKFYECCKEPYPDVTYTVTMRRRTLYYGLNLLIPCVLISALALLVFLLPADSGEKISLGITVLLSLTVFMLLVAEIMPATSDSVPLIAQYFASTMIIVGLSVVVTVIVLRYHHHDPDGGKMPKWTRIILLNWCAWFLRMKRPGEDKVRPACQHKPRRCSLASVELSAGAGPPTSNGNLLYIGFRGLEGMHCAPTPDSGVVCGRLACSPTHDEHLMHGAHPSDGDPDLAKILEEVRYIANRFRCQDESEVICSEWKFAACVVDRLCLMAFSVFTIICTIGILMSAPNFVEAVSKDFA

[3] = target: Neuronal acetylcholine receptor; alpha3/beta4 (Homo sapiens, UniProt P30926+P32297); assay: Displacement of [3H]epibatidine from human alpha3beta4 nAChR expressed in HEK cells; type: cell-based, HEK293
Sequence of Neuronal acetylcholine receptor; alpha3/beta4 (P30926 whole entry): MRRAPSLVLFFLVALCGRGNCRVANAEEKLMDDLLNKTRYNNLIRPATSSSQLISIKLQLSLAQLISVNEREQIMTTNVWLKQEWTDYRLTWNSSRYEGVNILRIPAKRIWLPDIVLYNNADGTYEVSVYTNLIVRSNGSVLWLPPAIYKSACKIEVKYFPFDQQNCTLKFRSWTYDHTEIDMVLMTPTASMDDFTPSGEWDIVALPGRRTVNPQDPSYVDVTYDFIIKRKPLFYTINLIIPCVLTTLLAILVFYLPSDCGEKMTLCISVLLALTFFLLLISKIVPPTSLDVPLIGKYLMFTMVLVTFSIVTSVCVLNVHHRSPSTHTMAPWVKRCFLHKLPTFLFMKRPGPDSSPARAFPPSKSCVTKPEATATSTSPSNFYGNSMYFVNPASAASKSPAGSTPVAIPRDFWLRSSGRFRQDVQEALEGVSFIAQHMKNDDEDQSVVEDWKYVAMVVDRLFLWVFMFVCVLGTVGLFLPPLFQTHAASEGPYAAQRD
Sequence of Neuronal acetylcholine receptor; alpha3/beta4 (P32297 whole entry): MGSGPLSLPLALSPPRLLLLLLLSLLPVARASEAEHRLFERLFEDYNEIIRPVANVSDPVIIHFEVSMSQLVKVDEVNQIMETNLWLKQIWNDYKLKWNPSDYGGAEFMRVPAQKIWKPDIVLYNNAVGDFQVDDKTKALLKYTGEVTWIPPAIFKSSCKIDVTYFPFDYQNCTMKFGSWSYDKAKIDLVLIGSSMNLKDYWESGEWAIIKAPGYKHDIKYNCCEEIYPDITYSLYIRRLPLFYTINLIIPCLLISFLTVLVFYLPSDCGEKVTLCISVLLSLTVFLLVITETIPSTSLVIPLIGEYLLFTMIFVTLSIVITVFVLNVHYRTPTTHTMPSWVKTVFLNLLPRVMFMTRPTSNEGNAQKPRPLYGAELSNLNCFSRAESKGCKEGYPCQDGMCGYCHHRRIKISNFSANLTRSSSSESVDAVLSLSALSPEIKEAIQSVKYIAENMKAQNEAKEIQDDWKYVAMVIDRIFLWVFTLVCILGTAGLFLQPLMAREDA

[4] = species on record: Rattus norvegicus; assay: Selectivity ratio of Ki for alpha7 nAChR in rat hippocampus to Ki for alpha4beta2 nAChR in rat cortex; type: tissue-based
[5] = target: T2, Acetylcholine receptor; alpha1/beta1/delta/gamma (Homo sapiens, UniProt P02708+P07510+P11230+Q07001); assay: Displacement of [125I]alpha-bungarotoxin from human alpha2betagammadelta nAChR; type: protein-complex assay
[6] = target: T1, Neuronal acetylcholine receptor; alpha4/beta2; assay: Agonist activity at alpha4beta2 nAChR in rat brain striatal slices assessed as release of [3H]dopamine release; type: tissue-based
[7] = target: T2, Acetylcholine receptor; alpha1/beta1/delta/gamma; assay: Displacement of [125I]alpha-bungarotoxin from human alpha2betagammadelta nAChR at 10 uM; type: protein-complex assay
[8] = Selectivity ratio of Ki for human alpha3beta4 nAChR to Ki for alpha4beta2 nAChR in rat cortex
[9] = target: T1, Neuronal acetylcholine receptor; alpha4/beta2; assay: (§1) Antagonist activity at alpha4beta2 nAChR in rat brain striatal slices assessed as inhibition of nicotine-induced release of [3H]dopamine release; type: tissue-based
[10] = target: T3, Neuronal acetylcholine receptor; alpha4/beta2 (Rattus norvegicus) (UniProt P09483+P12390); assay: as §1; type: tissue-based; details: concentration not given here
[11] = target: T3, Neuronal acetylcholine receptor; alpha4/beta2 (Rattus norvegicus); assay: Agonist activity at alpha4beta2 nAChR in rat brain striatal slices assessed as release of [3H]dopamine release relative to nicotine; type: tissue-based
[12] = target: T3, Neuronal acetylcholine receptor; alpha4/beta2 (Rattus norvegicus); assay: Displacement of [3H]epibatidine from alpha4beta2 nAChR in rat cortex up to 100 uM
[13] = target: Neuronal acetylcholine receptor subunit alpha-7 (Homo sapiens, UniProt P36544); assay: Displacement of [3H]methyllycaconitine from alpha7 nAChR (unknown origin)
Sequence of Neuronal acetylcholine receptor subunit alpha-7 (Homo sapiens, UniProt P36544) (P36544 whole entry): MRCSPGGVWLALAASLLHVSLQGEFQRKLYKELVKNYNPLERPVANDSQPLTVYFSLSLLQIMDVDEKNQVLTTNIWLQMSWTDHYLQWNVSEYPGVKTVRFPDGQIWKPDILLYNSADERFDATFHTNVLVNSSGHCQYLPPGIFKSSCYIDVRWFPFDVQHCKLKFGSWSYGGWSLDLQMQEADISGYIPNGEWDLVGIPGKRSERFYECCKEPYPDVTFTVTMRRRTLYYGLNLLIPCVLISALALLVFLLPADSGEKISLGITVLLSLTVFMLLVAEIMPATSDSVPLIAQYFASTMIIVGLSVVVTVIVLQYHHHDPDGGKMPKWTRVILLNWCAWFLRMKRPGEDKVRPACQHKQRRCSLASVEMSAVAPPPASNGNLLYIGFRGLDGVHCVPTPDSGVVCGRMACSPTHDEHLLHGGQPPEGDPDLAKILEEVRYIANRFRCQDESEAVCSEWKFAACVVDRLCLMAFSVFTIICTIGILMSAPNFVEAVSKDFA

[14] = target: Neuronal acetylcholine receptor; alpha4/beta2 (Homo sapiens, UniProt P17787+P43681); assay: Displacement of [3H]epibatidine from alpha4beta2 nAChR (unknown origin); type: protein-complex assay
Sequence of Neuronal acetylcholine receptor; alpha4/beta2 (Homo sapiens, UniProt P17787+P43681) (P17787 whole entry): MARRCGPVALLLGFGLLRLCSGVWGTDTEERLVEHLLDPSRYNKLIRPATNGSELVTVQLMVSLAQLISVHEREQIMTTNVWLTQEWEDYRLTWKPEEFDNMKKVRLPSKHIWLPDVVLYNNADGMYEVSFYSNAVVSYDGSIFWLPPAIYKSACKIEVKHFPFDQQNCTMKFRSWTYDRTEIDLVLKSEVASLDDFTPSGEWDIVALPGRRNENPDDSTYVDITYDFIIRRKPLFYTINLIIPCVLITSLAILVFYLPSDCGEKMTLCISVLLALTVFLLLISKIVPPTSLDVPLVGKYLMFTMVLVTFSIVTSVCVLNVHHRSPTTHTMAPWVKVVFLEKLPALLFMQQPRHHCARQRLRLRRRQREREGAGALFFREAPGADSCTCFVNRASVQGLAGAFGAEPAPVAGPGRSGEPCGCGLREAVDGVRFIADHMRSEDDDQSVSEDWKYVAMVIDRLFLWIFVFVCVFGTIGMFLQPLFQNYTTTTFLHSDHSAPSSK
Sequence of Neuronal acetylcholine receptor; alpha4/beta2 (Homo sapiens, UniProt P17787+P43681) (P43681 whole entry): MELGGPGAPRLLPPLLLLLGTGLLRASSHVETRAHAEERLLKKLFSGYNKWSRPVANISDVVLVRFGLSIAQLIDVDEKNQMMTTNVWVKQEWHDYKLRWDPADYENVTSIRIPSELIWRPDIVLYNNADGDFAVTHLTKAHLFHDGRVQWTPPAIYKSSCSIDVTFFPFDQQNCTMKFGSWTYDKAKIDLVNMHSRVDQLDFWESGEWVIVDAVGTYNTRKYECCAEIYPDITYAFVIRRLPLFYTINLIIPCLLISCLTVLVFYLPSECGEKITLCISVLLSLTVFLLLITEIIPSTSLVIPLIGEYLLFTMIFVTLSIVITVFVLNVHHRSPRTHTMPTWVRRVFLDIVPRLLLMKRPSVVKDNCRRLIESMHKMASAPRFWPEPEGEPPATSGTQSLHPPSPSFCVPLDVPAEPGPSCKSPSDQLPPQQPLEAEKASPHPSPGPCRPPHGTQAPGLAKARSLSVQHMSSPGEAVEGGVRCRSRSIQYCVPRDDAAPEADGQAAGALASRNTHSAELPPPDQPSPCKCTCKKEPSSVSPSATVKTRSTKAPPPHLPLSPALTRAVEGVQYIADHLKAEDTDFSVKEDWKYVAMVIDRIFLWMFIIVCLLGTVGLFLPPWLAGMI

Which Ki [1] does the source give for `O=c1cccc2n1C[C@@H]1CNC[C@H]2C1` [CYTISINICLINE] here?
Its Ki is 0.0021 µM.

What about the Ki [2] of the same compound?
The Ki was 0.23 µM.

And the Ki [3]?
Its Ki is 0.28 µM.

For `CCC(C)C(=O)N[C@H]1CCN2CCC[C@H]12` (stereo not given in full), which Ratio Ki [4] is on record?
The Ratio Ki was 136.

And the Ki [5]?
The Ki was over 10 µM.

And the EC50 [6]?
The EC50 was 5.8 µM.

And the Activity [7]?
The Activity was 5%.

What about the Ratio Ki [8] of the same compound?
Its Ratio Ki is 126.

What about the Ki [1] of the same compound?
The Ki was 0.29 µM.

And the IC50 [9]?
Its IC50 is 1.6 µM.

And the inhibition [10]?
Its inhibition is 46%.

And the Efficacy [11]?
The Efficacy was 43%.

And the Ki [2]?
Its Ki is 40 µM.

And the Ki [3]?
The Ki was 37 µM.

With `CCC(=O)N[C@H]1CCCN2CCCC[C@@H]12` (racemic) as the compound, how does the Ki [1] read?
The Ki was 4.44 µM.

For `CC(=O)N[C@H]1CCCN2CCCC[C@@H]12`, which Activity [12] is on record?
Its Activity is “inactive”.

With `CC(C)C(=O)N[C@H]1CCCN2CCCC[C@H]12` (racemic) as the compound, how does the Ki [1] read?
The Ki was 6.05 µM.

Which Ki [1] does the source give for `CC(C)C(=O)N[C@H]1CCCN2CCCC[C@@H]12` (racemic) here?
Its Ki is 6.81 µM.

Which Ki [1] does the source give for `CC(C)C(=O)N[C@@H]1CCN2CCCC[C@@H]12` (racemic) here?
The Ki was 100 µM.

And the Ki [2]?
Its Ki is 29 µM.

With `CC(=O)C1=CC[C@@H]2CC[C@H]1N2` as the compound, how does the Ki [13] read?
Its Ki is 100 µM.

What about the Ki [14] of the same compound?
The Ki was 0.094 µM.

For `CCC(=O)N[C@H]1CCCN2CCCC[C@H]12` (racemic), which Ki [1] is on record?
The Ki was 6.15 µM.

Which results are given for `CC(C)C(=O)N[C@H]1CCN2CCCC[C@@H]12` (racemic)?
Ki [1]: 283 µM; Ki [2]: 26 µM
